Experiments:
Settings in all cases: sulfur source concentration 200 µM; S. cerevisiae S288C/BY sul1Δ sul2Δ soa1Δ with transporter ortholog inserted at SOA1 locus; sulfur-free B medium, 4% glucose, pH 6.5, sole sulfur source
[1] = tested on: Saccharomyces uvarum_SOA2; assay: lag phase before growth; higher = slower start of growth
[2] = tested on: Saccharomyces eubayanus_SOA1; assay: as above
[3] = tested on: Metarhizium robertsii_XP_007822519; assay: as above
[4] = tested on: Saccharomyces uvarum_SOA1; assay: as above
[5] = tested on: Saccharomyces cerevisiae_SOA1; assay: as above
[6] = tested on: Ogataea parapolymorpha_XP_013935289; assay: as above
[7] = tested on: Ogataea parapolymorpha_XP_013932458; assay: maximal culture density with compound as sole sulfur source (OD600); higher = better growth
[8] = tested on: Fusarium oxysporum_ENH65823; assay: as above
[9] = tested on: Aspergillus nidulans_CBF74694; assay: as above
[10] = tested on: Saccharomyces uvarum_SOA2; assay: as above
[11] = tested on: Saccharomyces eubayanus_SOA1; assay: as above
[12] = tested on: Aspergillus nidulans_XP_681611; assay: as above
[13] = tested on: Aspergillus nidulans_CBF80346; assay: as above
[14] = tested on: Aspergillus nidulans_XP_660563; assay: as above
[15] = tested on: Metarhizium robertsii_XP_007822519; assay: as above
[16] = tested on: Aspergillus nidulans_XP_660670; assay: as above
[17] = tested on: Saccharomyces uvarum_SOA1; assay: as above
[18] = tested on: Saccharomyces eubayanus_SOA2; assay: as above
[19] = tested on: Metarhizium robertsii_XP_007823832; assay: as above
[20] = tested on: Aspergillus nidulans_XP_661711; assay: as above
[21] = tested on: Ogataea parapolymorpha_XP_013936897; assay: as above
[22] = tested on: Metarhizium robertsii_XP_007821441; assay: as above
[23] = tested on: Aspergillus nidulans (IAM 2006)_astA; assay: as above
[24] = tested on: Saccharomyces cerevisiae_SOA1; assay: as above
[25] = tested on: Aspergillus nidulans_XP_661733; assay: as above
[26] = tested on: Ogataea parapolymorpha_XP_013935289; assay: as above
[27] = tested on: soa1 del; assay: as above
[28] = tested on: Saccharomyces eubayanus_SOA1; assay: maximal growth rate with compound as sole sulfur source (OD600 per h); higher = better growth / uptake of the sulfur source
[29] = tested on: Aspergillus nidulans_CBF80346; assay: as above
[30] = tested on: Metarhizium robertsii_XP_007822519; assay: as above
[31] = tested on: Saccharomyces uvarum_SOA1; assay: as above
[32] = tested on: Metarhizium robertsii_XP_007823832; assay: as above
[33] = tested on: Ogataea parapolymorpha_XP_013936897; assay: as above
[34] = tested on: Metarhizium robertsii_XP_007821441; assay: as above
[35] = tested on: Aspergillus nidulans (IAM 2006)_astA; assay: as above
[36] = tested on: Ogataea parapolymorpha_XP_013935289; assay: as above

| SMILES | lag phase before growth [1] [h] | lag phase before growth [2] [h] | lag phase before growth [3] [h] | lag phase before growth [4] [h] | lag phase before growth [5] [h] | lag phase before growth [6] [h] | maximal culture density [7] | maximal culture density [8] | maximal culture density [9] | maximal culture density [10] | maximal culture density [11] | maximal culture density [12] | maximal culture density [13] | maximal culture density [14] | maximal culture density [15] | maximal culture density [16] | maximal culture density [17] | maximal culture density [18] | maximal culture density [19] | maximal culture density [20] | maximal culture density [21] | maximal culture density [22] | maximal culture density [23] | maximal culture density [24] | maximal culture density [25] | maximal culture density [26] | maximal culture density [27] | maximal growth rate [28] | maximal growth rate [29] | maximal growth rate [30] | maximal growth rate [31] | maximal growth rate [32] | maximal growth rate [33] | maximal growth rate [34] | maximal growth rate [35] | maximal growth rate [36] |
| --- | --- | --- | --- | --- | --- | --- | --- | --- | --- | --- | --- | --- | --- | --- | --- | --- | --- | --- | --- | --- | --- | --- | --- | --- | --- | --- | --- | --- | --- | --- | --- | --- | --- | --- | --- | --- |
| O=S(O)O [sulfite] | 11 | 6.97 | 0.981 | 5.95 | 6.67 | 5.63 | 0.285 | 0.256 | 0.196 | 1.44 | 1.58 | 0.308 | 0.262 | 0.322 | 1 | 0.243 | 1.61 | 0.645 | 1.56 | 0.244 | 0.284 | 0.235 | 1.6 | 1.6 | 0.274 | 1.61 | 0.222 | 0.0839 | 0.00484 | 0.0114 | 0.0915 | 0.0855 | 0.00463 | 0.00339 | 0.104 | 0.0989 |
| O=S(=O)(O)CO [Hydroxymethane sulfonate] | 11.1 | 7.32 | 7.86 | 6.88 | 6.75 | 6.08 | 0.234 | 0.195 | 0.203 | 1.73 | 1.59 | 0.322 | 0.208 | 0.318 | 1.59 | 0.207 | 1.6 | 1.66 | 1.5 | 0.207 | 0.303 | 1.04 | 1.6 | 1.61 | 0.267 | 1.62 | 0.212 | 0.0972 | 0.00313 | 0.0756 | 0.109 | 0.038 | 0.00499 | 0.0032 | 0.0343 | 0.114 |
| CSCC[C@H](N)C(=O)O [Methionine] | 4.3 | 3.83 | 4.74 | 3.45 | 5.45 | 4.02 | 1.56 | 1.59 | 1.57 | 1.68 | 1.55 | 1.64 | 1.58 | 1.6 | 1.59 | 1.6 | 1.57 | 1.63 | 1.58 | 1.6 | 1.57 | 1.59 | 1.59 | 1.61 | 1.59 | 1.55 | 1.69 | 0.129 | 0.139 | 0.139 | 0.131 | 0.138 | 0.123 | 0.137 | 0.143 | 0.13 |
| CCS(=O)(=O)O [Ethanesulfonate] | 15.6 | 9.96 | 7.36 | 9.26 | 10.3 | 8.69 | 0.237 | 0.197 | 0.182 | 1.76 | 1.58 | 0.319 | 0.22 | 0.314 | 1.6 | 0.209 | 1.59 | 1.75 | 0.494 | 0.209 | 0.296 | 0.214 | 0.477 | 1.58 | 0.238 | 1.58 | 0.215 | 0.0681 | 0.00396 | 0.0594 | 0.0735 | 0.0141 | 0.00513 | 0.00304 | 0.0175 | 0.0784 |

From the supplement of paper PMC5303821, “Major sulfonate transporter Soa1 in Saccharomyces cerevisiae and considerable substrate diversity in its fungal family” (Nature Communications, 2017)
